Like-named read-outs stand apart in the source and are kept apart here. Marks after values point to notes of the source that are not given here.
Legend:
[1] = for digoxin CL/F: arithmetic mean ± SD
clinical [2] = conditions: human, plasma, oral, geometric mean (geometric CV%), n = 20
Safety evaluation [3] = format: in vivo, human (healthy adults); conditions: part 1, treatments pooled
[4] = for futibatinib CL/F: arithmetic mean ± SD
[5] = cited from earlier work
[6] = cited from earlier work; remark: listed apart in the source
P‐glycoprotein (P‐gp) = conditions: in vitro; cited from earlier work
clinical [7] = conditions: human, plasma, 20 mg
[8] = participants with advanced solid tumors; cited from earlier work
[9] = Phase I DDI study part 1: plasma rosuvastatin PK with and without futibatinib; format: in vivo, human (healthy adults)
Safety evaluation [10] = format: in vivo, human (healthy adults); conditions: part 2; of a total of 27 TEAEs
[11] = with itraconazole; cited from earlier work
[12] = digoxin + rosuvastatin, without futibatinib, median (min, max)
[13] = quinidine coadministration vs. futibatinib alone
[14] = after coadministration with futibatinib vs. rosuvastatin plus digoxin
[15] = digoxin + rosuvastatin, without futibatinib, arithmetic mean ± SD, 18 participants

C[C@H]1O[C@@H](O[C@H]2[C@@H](O)C[C@H](O[C@H]3[C@@H](O)C[C@H](O[C@H]4CC[C@@]5(C)[C@H](CC[C@@H]6[C@@H]5C[C@@H](O)[C@]5(C)[C@@H](C7=CC(=O)OC7)CC[C@]65O)C4)O[C@@H]3C)O[C@@H]2C)C[C@H](O)[C@@H]1O [digoxin]
digoxin CL/F ([1]; digoxin + rosuvastatin with futibatinib, 19 participants): 14.6 ± 5.4 ^a L/h | digoxin CL/F ([1]; digoxin + rosuvastatin, without futibatinib): 14.6 ± 4.1 L/h | digoxin T max [1, 12]: 1.0 (0.67, 2.0) h | mean digoxin renal clearance lower ([1]; digoxin administered with futibatinib vs. without): 13% | delay of median digoxin T max ([1]; following digoxin, rosuvastatin and futibatinib vs. without futibatinib): ~ 0.3 h | difference in digoxin C max and AUC ([1]; with and without futibatinib): < 20% | digoxin AUC0–120 GMR (90% CI) ([1]; with vs. without futibatinib): 103.9 (94.5–114.2) % | digoxin AUCinf GMR (90% CI) ([1]; with vs. without futibatinib): 100.2 (90.8–110.5) % | digoxin C max GMR (90% CI) ([1]; with vs. without futibatinib): 95.1 (81.1–111.5) % | digoxin CLr GMR (90% CI) ([1]; with vs. without futibatinib): 87.1 (80.8–93.9) % | AUC(0-inf) (clinical [2]; digoxin AUCinf, digoxin + rosuvastatin, without futibatinib): 17.7 ng·h/mL | Cmax (clinical [2]; digoxin C max, digoxin + rosuvastatin with futibatinib 20 mg once daily): 0.953 ng/mL

C=CC(=O)N1CC[C@H](n2nc(C#Cc3cc(OC)cc(OC)c3)c3c(N)ncnc32)C1 [futibatinib]
TEAE diarrhea (Safety evaluation [3]): 80% | TEAE increased blood phosphate (Safety evaluation [3]): 75% | futibatinib CL/F ([4]; futibatinib + quinidine, n = 15): 34.3 ± 13.2 L/h | futibatinib AUCinf ([4]; futibatinib + quinidine, geometric mean (geometric CV%), n = 15): 627.0 (41.6) ng*h/mL | futibatinib CL/F ([4]; futibatinib alone, n = 24): 43.1 ± 40.8 L/h | increase in futibatinib C max and AUC [4, 13]: < 20% | magnitude of increase in futibatinib AUC0–24 [4, 13]: 16% | magnitude of increase in futibatinib AUCinf (exposure) [4, 13]: 17% | magnitude of increase in futibatinib C max [4, 13]: 8% | futibatinib AUC0–24 GMR (90% CI) ([4]; with vs. without quinidine): 116.4 (95.4–142.1) % | futibatinib AUCinf GMR (90% CI) ([4]; with vs. without quinidine): 117.0 (96.0–142.7) % | futibatinib C max GMR (90% CI) ([4]; with vs. without quinidine): 108.0 (90.9–128.3) % | difference in futibatinib exposure ([5]; administered with or without lansoprazole): no significant differences | futibatinib bioavailability lower ([5]; fed versus fasted conditions, healthy participants): 11.2% | futibatinib exposure increased ([6]; coadministered with itraconazole (dual P‐gp and CYP3A inhibitor)): 41%–51% | futibatinib exposure decreased ([6]; coadministered with rifampin (dual P‐gp and CYP3A inducer)): 53%–64% | substrate of P‐gp (P‐glycoprotein (P‐gp)): substrate | Vd/F (clinical [7]; oral): 132 ± 72.2 L | half-life (clinical [7]; oral): 150 ± 49.8 min | AUC(0-inf) (clinical [7]; oral, futibatinib AUCinf, futibatinib alone, geometric mean (geometric CV%), n = 24): 582 ng·h/mL | AUC(0-t) (clinical [7]; po): 580 ng·h/mL | terminal elimination half‐life (t ½) [8]: approximately 3 h

CC(C)c1nc(N(C)S(C)(=O)=O)nc(-c2ccc(F)cc2)c1/C=C/[C@@H](O)C[C@@H](O)CC(=O)O [rosuvastatin]
geometric mean rosuvastatin AUCs higher [9, 14]: ≤ 18.8% | geometric mean rosuvastatin C max higher [9, 14]: 10.2% | rosuvastatin CL/F ([9]; digoxin + rosuvastatin with futibatinib, arithmetic mean ± SD): 207.2 ± 105.7 L/h | rosuvastatin CL/F [9, 15]: 247.3 ± 167.2 ^c L/h | rosuvastatin t ½ [9, 15]: 16.7 ± 8.5 ^c h | rosuvastatin T max [9, 12]: 4.0 (1.0, 6.1) h | AUC(0-inf) ([9]; human, plasma, oral, rosuvastatin AUCinf, digoxin + rosuvastatin, without futibatinib, geometric mean (geometric CV%), 18 participants): 46.9 ng·h/mL | increase in rosuvastatin C max and AUC ([9]; with vs. without futibatinib): < 20% | rosuvastatin AUC0–72 GMR (90% CI) ([9]; with vs. without futibatinib): 118.8 (107.9–130.7) % | rosuvastatin AUCinf GMR (90% CI) ([9]; with vs. without futibatinib): 113.5 (102.6–125.5) % | rosuvastatin C max GMR (90% CI) ([9]; with vs. without futibatinib): 110.2 (97.3–124.8) %

C=C[C@H]1C[N@@]2CC[C@H]1C[C@@H]2[C@@H](O)c1ccnc2ccc(OC)cc12 [quinidine]
TEAEs considered by the investigator to be related to the drug (Safety evaluation [10]): 22 events

CCN1C(=O)N(c2c(F)c(OC)cc(OC)c2F)Cc2cnc3[nH]c(CN4CCOCC4)cc3c21 [pemigatinib]
increase in pemigatinib AUC [11]: 88% | increase in pemigatinib C max [11]: 17%

From article PMC11388056 (Clinical and Translational Science, 2024)
